Assay results published in patent EP0908457B1, “3-(1,2-benzisothiazol- and isoxazol-5-Y1)-2,4(1H,3H)-pyrimidinedione or thione and 3-(1,2-benzisothiazol- and isoxazol-5-y1)-4(3H)-pyrimidinone or thione herbicidal agents” (BASF AKTIENGESELLSCHAFT, priority 1997, dated 1999).

How the values were obtained:
[1] = system: Echinochloa oryzoides (Ard.) Fritsch.; assay: Preemergence weed control under flooded paddy conditions, ECHORC (Watergrass (Calif.)); type: in vivo; conditions: preemergence, flooded paddy; for herbicidal effect rating, ECHORC: meaning of each grade not given here
Sagittaria pygmaea, L. = assay: Preemergence weed control under flooded paddy conditions, SAGPY (Arrowhead (Pygmaea)); type: in vivo; conditions: preemergence, flooded paddy; for herbicidal effect rating, SAGPY: meaning of each grade not given here
[2] = system: Oryza sativa, (L.) Tebonnet; assay: Rice tolerance to post-transplant applications under flooded paddy conditions (Example 187), ORYSAT (Rice, Tebonnet); conditions: for herbicidal effect rating ORYSAT: rated 3-4 weeks after treatment; for herbicidal effect rating, ORYSAT (rice tolerance) / ORYSAT herbicidal rating (rice tolerance): rated three to four weeks after treatment; for herbicidal effect rating ORYSAT: meaning of each grade not given here
[3] = system: Cyperus serotinus, Rottb.; assay: Preemergence weed control under flooded paddy conditions, CYPSE (Flatsedge); type: in vivo; conditions: preemergence; for herbicidal effect rating, CYPSE: meaning of each grade not given here
Cyperus iria = assay: Preemergence weed control under flooded paddy conditions, CYPIR (Rice Flatsedge); type: in vivo; conditions: preemergence, flooded paddy; for herbicidal effect rating, CYPIR: meaning of each grade not given here
[4] = system: Monochoria vaginalis, Presl.; assay: Preemergence weed control under flooded paddy conditions, MOOVA (Monochoria); type: in vivo; conditions: preemergence, flooded paddy; for herbicidal effect rating, MOOVA: meaning of each grade not given here
[5] = Rate 0.0320 kg/ha, rated 3-4 weeks after treatment
[6] = Rate 0.0620 kg/ha, rated 3-4 weeks after treatment
[7] = Rate 0.1250 kg/ha, rated 3-4 weeks after treatment
[8] = Rate 0.2500 kg/ha, rated 3-4 weeks after treatment
[9] = 0.0313 kg/ha, rated three to four weeks after treatment
[10] = 0.0625 kg/ha, rated three to four weeks after treatment
[11] = 0.1250 kg/ha, rated three to four weeks after treatment
[12] = 0.2500 kg/ha, rated three to four weeks after treatment
[13] = 0.0320 kg/ha, rated three to four weeks after treatment
[14] = 0.0620 kg/ha, rated three to four weeks after treatment

C=CCOC(=O)/C=C/c1nsc2ccc(-n3c(=O)cc(C(F)(F)F)n(C)c3=O)cc12 [Example 566, 1,2-Benzisothiazole-3-acrylic acid, 5-[3,6-dihydro-3-methyl-2,6-dioxo-4-(trifluoromethyl)-1(2H)-pyrimidinyl]-, allyl ester, (E)-]
5.0: herbicidal effect rating ORYSAT ([2]; Rate 0.1250 kg/ha)
0.0: herbicidal effect rating, SAGPY (Sagittaria pygmaea, L.; [5]) | herbicidal effect rating, SAGPY (Sagittaria pygmaea, L.; [6]) | herbicidal effect rating, SAGPY (Sagittaria pygmaea, L.; [7]) | herbicidal effect rating, CYPSE [3, 5] | herbicidal effect rating, CYPSE [3, 6] | herbicidal effect rating, CYPSE [3, 7] | herbicidal effect rating, CYPIR (Cyperus iria; [5]) | herbicidal effect rating, CYPIR (Cyperus iria; [6]) | herbicidal effect rating, CYPIR (Cyperus iria; [7])
3.0: herbicidal effect rating, ECHORC [1, 5] | herbicidal effect rating, ECHORC [1, 6] | herbicidal effect rating, ECHORC [1, 7] | herbicidal effect rating ORYSAT ([2]; Rate 0.0620 kg/ha) | herbicidal effect rating, CYPSE [3, 8]
9.0: herbicidal effect rating, SAGPY (Sagittaria pygmaea, L.; [8]) | herbicidal effect rating, CYPIR (Cyperus iria; [8]) | herbicidal effect rating, MOOVA [4, 5] | herbicidal effect rating, MOOVA [4, 6] | herbicidal effect rating, MOOVA [4, 7] | herbicidal effect rating, MOOVA [4, 8]
6.0: herbicidal effect rating, ECHORC [1, 8] | herbicidal effect rating ORYSAT ([2]; Rate 0.2500 kg/ha)

Cc1ccc(OCC(=O)OCC#Cc2ccccc2)c(-c2nsc3ccc(-n4c(=O)cc(C(F)(F)F)n(C)c4=O)cc23)c1 [Example 73, 3-Phenyl-2-propynyl {{2-{5-[3,6-dihydro-3-methyl-2,6-dioxo-4-(trifluoromethyl)-1(2H)-pyrimidinyl]-1,2-benzisothiazol-3-yl}-p-tolyl}oxy}acetate]
3.0: herbicidal effect rating, ORYSAT (rice tolerance) ([2]; 0.0625 kg/ha)
9.0: herbicidal effect rating, ECHORC [1, 11] | herbicidal effect rating, ECHORC [1, 12] | herbicidal effect rating, CYPSE [3, 12] | herbicidal effect rating, MOOVA [4, 9] | herbicidal effect rating, MOOVA [4, 10] | herbicidal effect rating, MOOVA [4, 11] | herbicidal effect rating, MOOVA [4, 12]
6.5: herbicidal effect rating, ECHORC [1, 10]
0.0: herbicidal effect rating, SAGPY (Sagittaria pygmaea, L.; [9]) | herbicidal effect rating, SAGPY (Sagittaria pygmaea, L.; [10]) | herbicidal effect rating, SAGPY (Sagittaria pygmaea, L.; [11]) | herbicidal effect rating, CYPSE [3, 9] | herbicidal effect rating, CYPSE [3, 10]
2.0: herbicidal effect rating, SAGPY (Sagittaria pygmaea, L.; [12]) | herbicidal effect rating, CYPSE [3, 11] | herbicidal effect rating, CYPIR (Cyperus iria; [9])
6.0: herbicidal effect rating, ORYSAT (rice tolerance) ([2]; 0.2500 kg/ha) | herbicidal effect rating, CYPIR (Cyperus iria; [10])
2.5: herbicidal effect rating, ORYSAT (rice tolerance) ([2]; 0.0313 kg/ha)
8.0: herbicidal effect rating, ECHORC [1, 9] | herbicidal effect rating, CYPIR (Cyperus iria; [11]) | herbicidal effect rating, CYPIR (Cyperus iria; [12])
4.0: herbicidal effect rating, ORYSAT (rice tolerance) ([2]; 0.1250 kg/ha)

C=CCOC(=O)C(C)(C)c1nsc2ccc(-n3c(=O)cc(C(F)(F)F)n(C)c3=O)cc12 [Example 491, 1,2-Benzisothiazole-3-acetic acid, 5-[3,6-dihydro-3-methyl-2,6-dioxo-4-(trifluoromethyl)-1(2H)-pyrimidinyl]-alpha,alpha-dimethyl-, allyl ester]
5.5: SAGPY herbicidal rating (Sagittaria pygmaea, L.; [14])
7.0: CYPSE herbicidal rating [3, 13]
6.5: ORYSAT herbicidal rating (rice tolerance) ([2]; 0.0620 kg/ha)
8.0: ORYSAT herbicidal rating (rice tolerance) ([2]; 0.1250 kg/ha)
7.5: ORYSAT herbicidal rating (rice tolerance) ([2]; 0.2500 kg/ha) | CYPIR herbicidal rating (Cyperus iria; [13])
9.0: ECHORC herbicidal rating [1, 13] | ECHORC herbicidal rating [1, 14] | ECHORC herbicidal rating [1, 11] | ECHORC herbicidal rating [1, 12] | SAGPY herbicidal rating (Sagittaria pygmaea, L.; [11]) | SAGPY herbicidal rating (Sagittaria pygmaea, L.; [12]) | CYPSE herbicidal rating [3, 14] | CYPSE herbicidal rating [3, 11] | CYPSE herbicidal rating [3, 12] | CYPIR herbicidal rating (Cyperus iria; [14]) | CYPIR herbicidal rating (Cyperus iria; [11]) | CYPIR herbicidal rating (Cyperus iria; [12]) | MOOVA herbicidal rating [4, 13] | MOOVA herbicidal rating [4, 14] | MOOVA herbicidal rating [4, 11] | MOOVA herbicidal rating [4, 12]
5.0: SAGPY herbicidal rating (Sagittaria pygmaea, L.; [13]) | ORYSAT herbicidal rating (rice tolerance) ([2]; 0.0320 kg/ha)
